In patent US10722498B2, “Acetazolamide ophthalmic solution” (INNOVATIVE NANO & MICRO TECHNOLOGIES PVT LTD (INM …, priority 2017, dated 2020):

Columns and labels:
[1] = tested on: New Zealand white rabbit eyes; assay: Measurement of intraocular pressure in rabbit eyes (tonometry); assay type: in vivo; settings: rabbits, oral acetazolamide 12.92 mg/kg
Protocol: The inhibition of the ocular hypertension was determined by the following protocol: The experiments were performed in new New Zealand white rabbit eyes by using tonometry method. Rabbits were divided into groups; where each group consists of 4 animals. Group 1, Group 2, Group 3, Group 4 and Group 5 of Rabbits are administered with the predetermined concentrations of ophthalmic compositions of Example 1, 2, 3, 4 and 5 respectively. Group 6 of Rabbits are administered with oral acetazolamide 12.92 mg/kg. The intraocular pressure was measured at 0, 0.5, 1, 4, 8, 12 hrs. After 6 hours, one more administration of ophthalmic composition of Example 1 was instilled in Group 1 of Rabbits and the intraocular pressure was measured.
The percentage change in the intraocular pressure is depicted in the following table 1.

[2] = cited from earlier work

CC(=O)Nc1nnc(S(N)(=O)=O)s1 [Oral acetazolamide, acetazolamide]
percentage change in the intraocular pressure ([1]; 0.5 hrs after administration, 4 per group, eye drops instilled): 18.00% | percentage change in the intraocular pressure ([1]; 1 hr after administration, eye drops instilled): 14.00% | percentage change in the intraocular pressure ([1]; 4 hrs after administration, eye drops instilled): 14.00% | percentage change in the intraocular pressure ([1]; 6 hrs after administration, eye drops instilled): 14.00% | percentage change in the intraocular pressure ([1]; 8 hrs after administration, Group 1 (Example 1) had a second instillation after 6 hours): 6.00% | percentage change in the intraocular pressure ([1]; 12 hrs after administration, Group 1 (Example 1) had a second instillation after 6 hours): 6.00% | solubility in water [2]: very low solubility in water
